# ChEMBL document CHEMBL4325898, “Recent advances in the development of neuroprotective agents and therapeutic targets in the treatment of cerebral ischemia” (Eur J Med Chem, 2019)
# Test system: Felis catus
# Assay: Reduction in infarct volume in cat at 0.5 mg/kg administered as bolus dose at 15 mins before middle cerebral artery occlusion followed by infusion of 0.14 mg/kg/hr measured after 6 hrs
# Assay type: functional
# Set-up: scale not given: the % may be the effect or the level left
smiles,measurement,value
C[C@]12N[C@H](Cc3ccccc31)c1ccccc12.O=C(O)/C=C/C(=O)O,Activity,75%
